Laboratory results: the NIST ThermoML archive (doi:10.1021/je501141e)

Test: xn = mol fraction of the nth substance listed
Details: 100 kPa, Liquid; for viscosity: Concentric cylinders viscometry; for speed of sound: Frequency=200 MHz, Sing-around technique in a fixed-path interferometer; for mass density: Vibrating tube method

CC(CC(C)(C)C)CC(C)(C)CC(C)(C)C (stereo not given) [2,2,4,4,6,8,8-heptamethylnonane] + CC(CC(C)(C)C)CC(C)(C)C
Details	mass density [kg/m3]	speed of sound [m/s]	viscosity [mPa·s]
293.15 K, x1 = 0.0772	749.05	1211.7	1.43
293.15 K, x1 = 0.1584	752.89	1219.4	1.55
293.15 K, x1 = 0.2439	756.76	1226.7	1.7
293.15 K, x1 = 0.334	760.65	1234.8	1.87
293.15 K, x1 = 0.4293	764.68	1242.9	2.08
293.15 K, x1 = 0.5302	768.56	1251.1	2.29
293.15 K, x1 = 0.6371	772.47	1259.6	2.56
293.15 K, x1 = 0.7506	776.56	1268.2	2.86
293.15 K, x1 = 0.8711	780.52	1276.9	3.25
293.15 K, x1 = 1	–	–	3.71
303.15 K, x1 = 0.0772	741.82	1173	1.2
303.15 K, x1 = 0.1584	745.73	1180.9	1.3
303.15 K, x1 = 0.2439	749.65	1188.4	1.42
303.15 K, x1 = 0.334	753.6	1196.6	1.55
303.15 K, x1 = 0.4293	757.69	1205	1.71
303.15 K, x1 = 0.5302	761.62	1213.3	1.88
303.15 K, x1 = 0.6371	765.59	1221.9	2.08
303.15 K, x1 = 0.7506	769.74	1230.8	2.31
303.15 K, x1 = 0.8711	773.76	1239.6	2.59
303.15 K, x1 = 1	–	–	2.93
313.15 K, x1 = 0.0772	734.56	1135	1.02
313.15 K, x1 = 0.1584	738.53	1143	1.1
313.15 K, x1 = 0.2439	742.51	1150.7	1.2
313.15 K, x1 = 0.334	746.52	1159	1.3
313.15 K, x1 = 0.4293	750.67	1167.6	1.43
313.15 K, x1 = 0.5302	754.66	1176.1	1.56
313.15 K, x1 = 0.6371	758.69	1184.8	1.72
313.15 K, x1 = 0.7506	762.9	1193.9	1.9
313.15 K, x1 = 0.8711	766.98	1202.8	2.12
313.15 K, x1 = 1	–	–	2.37
323.15 K, x1 = 0.0772	727.27	1097.7	0.882
323.15 K, x1 = 0.1584	731.3	1105.9	0.947
323.15 K, x1 = 0.2439	735.34	1113.7	1.03
323.15 K, x1 = 0.334	739.41	1122.2	1.11
323.15 K, x1 = 0.4293	743.63	1131	1.21
323.15 K, x1 = 0.5302	747.69	1139.7	1.32
323.15 K, x1 = 0.6371	751.78	1148.5	1.44
323.15 K, x1 = 0.7506	756.05	1157.7	1.59
323.15 K, x1 = 0.8711	760.19	1166.8	1.76
323.15 K, x1 = 1	–	–	1.95
333.15 K, x1 = 0.0772	719.94	1061.1	0.768
333.15 K, x1 = 0.1584	724.04	1069.5	0.822
333.15 K, x1 = 0.2439	728.14	1077.5	0.889
333.15 K, x1 = 0.334	732.28	1086.1	0.956
333.15 K, x1 = 0.4293	736.56	1095.1	1.04
333.15 K, x1 = 0.5302	740.68	1103.9	1.13
333.15 K, x1 = 0.6371	744.84	1112.9	1.23
333.15 K, x1 = 0.7506	749.18	1122.3	1.34
333.15 K, x1 = 0.8711	753.38	1131.6	1.48
333.15 K, x1 = 1	–	–	1.64
343.15 K, x1 = 0.0772	712.57	1025.2	0.676
343.15 K, x1 = 0.1584	716.73	1033.7	0.721
343.15 K, x1 = 0.2439	720.9	1041.9	0.778
343.15 K, x1 = 0.334	725.11	1050.7	0.834
343.15 K, x1 = 0.4293	729.46	1059.8	0.906
343.15 K, x1 = 0.5302	733.65	1068.8	0.975
343.15 K, x1 = 0.6371	737.87	1077.9	1.06
343.15 K, x1 = 0.7506	742.28	1087.5	1.15
343.15 K, x1 = 0.8711	746.55	1096.9	1.26
343.15 K, x1 = 1	–	–	1.39
353.15 K, x1 = 0.0772	705	–	0.6
353.15 K, x1 = 0.1584	709.3	–	0.638
353.15 K, x1 = 0.2439	713.4	–	0.687
353.15 K, x1 = 0.334	717.7	–	0.734
353.15 K, x1 = 0.4293	722.1	–	0.794
353.15 K, x1 = 0.5302	726.4	–	0.852
353.15 K, x1 = 0.6371	730.8	–	0.923
353.15 K, x1 = 0.7506	735.1	–	0.998
353.15 K, x1 = 0.8711	739.5	–	1.09
353.15 K, x1 = 1	–	–	1.19
363.15 K, x1 = 0.0772	697.5	–	0.538
363.15 K, x1 = 0.1584	701.8	–	0.57
363.15 K, x1 = 0.2439	706.1	–	0.613
363.15 K, x1 = 0.334	710.4	–	0.653
363.15 K, x1 = 0.4293	714.8	–	0.704
363.15 K, x1 = 0.5302	719.2	–	0.753
363.15 K, x1 = 0.6371	723.7	–	0.813
363.15 K, x1 = 0.7506	728.1	–	0.88
363.15 K, x1 = 0.8711	732.5	–	0.954
363.15 K, x1 = 1	–	–	1.04
373.15 K, x1 = 0.0772	689.9	–	0.487
373.15 K, x1 = 0.1584	694.2	–	0.515
373.15 K, x1 = 0.2439	698.6	–	0.553
373.15 K, x1 = 0.334	703.1	–	0.586
373.15 K, x1 = 0.4293	707.5	–	0.63
373.15 K, x1 = 0.5302	712.1	–	0.673
373.15 K, x1 = 0.6371	716.7	–	0.723
373.15 K, x1 = 0.7506	721.1	–	0.78
373.15 K, x1 = 0.8711	725.6	–	0.841
373.15 K, x1 = 1	–	–	0.913
